According to patent US20250353848A1, “HETEROCYCLIC PAD4 INHIBITORS” (Celgene Corporation, priority 2022, published 2025):

Biological target: hPAD4 enzyme (Homo sapiens, UniProt Q9UM07)
Experiment: RFMS Assay 1 (rapid-fire mass spectrum PAD4 inhibition assay, BAEE substrate)
Format: biochemical
Conditions: 5 nM hPAD4 enzyme, 250 μM BAEE, 30 mins compound and enzyme preincubation at 37° C., 90 min enzyme/substrate reaction
Experimental: Compounds were solubilized in 100% DMSO to achieve a 10 mM compound concentration. Compound stock solutions were stored at RT. A series of dilutions were prepared in DMSO and mixed 8 times with 20 μL mixing volume. Final top concentration of compound in the assay is 50 μM. Final assay conditions were as follows: • Reaction volume: 26 μl • Assay buffer: 25 mM hepes, pH 7.5, 5 mM NaCl, 1 mM DTT, 0.2 mg/ml BSA, 0.01% CHAPS, 50 μM Calcium, and 5 μM TPEN • Final concentrations: 5 nM hPAD4 enzyme, 250 μM BAEE, and 0.5% DMSO • Total incubation time: 30 mins compound and enzyme preincubation at 37° C., 90 min enzyme/substrate reaction, 30 min reaction with phenyl glyoxal at 37° C. • Stop solution: 40 μl 5% TCA in ACN
0.13 μL of compound solution was added to 13 μL of 10 nM PAD4 in assay buffer. After 30 min 13 μl of 500 μM of BAEE was added in 25 mM hepes, pH 7.5, 5 mM NaCl, 1 mM DTT, 0.2 mg/ml BSA, 0.01% CHAPS, 50 µM Calcium, […] was added and the reaction incubated for 90 min at 37° C. The enzymatic reaction was quenched by addition of 15 μl of 6.1N TCA, 100% Final Concentration is 20%, 35 μl of 8.5 mM phenyl glyoxal (final concentration 4 mM) is then added and the reaction is incubated for 30 min at 37° C.
After 30 minutes the plates are spun down to remove all precipitate. The enzyme reaction was quenched with an equal volume of methanol containing internal standard (modified citrulline). Samples were loaded onto the Rapid Fire RF300 system (Agilent) wherein they were first sipped for 1000 ms and then directly loaded to a C18 separations cartridge using a mixture of acetonitrile containing 0.01% formic acid for 3000 ms desalting. The flow rate of the mobile phase was 1.5 ml/min. Once the samples were eluted from the cartridge, a mobile phase of acetonitrile containing 0.01% formic acid was used to move the samples into the mass spectrometer for 4000 ms at a flow rate of 1.25 ml/min/Sciex AP15500 triple quadrupole mass spectrometer (Applied Biosystems) equipped with ESI was used to analyze the peptidyl citrulline and internal standard ions.
MRM transition of product and internal standard were monitored at m/z 424.5 to 350.4 and m/z 293 to 247 respectively. The dwell time for each transition was set at 200 ms, and the ESI voltage was used at 5500 with a source temperature of 400° C. Extracted ion peaks for each transition were integrated using the Rapid Fire Integrator software. Peak area of analyte was normalized with internal standard.).

hPAD4 enzyme, sequence (Q9UM07 whole entry): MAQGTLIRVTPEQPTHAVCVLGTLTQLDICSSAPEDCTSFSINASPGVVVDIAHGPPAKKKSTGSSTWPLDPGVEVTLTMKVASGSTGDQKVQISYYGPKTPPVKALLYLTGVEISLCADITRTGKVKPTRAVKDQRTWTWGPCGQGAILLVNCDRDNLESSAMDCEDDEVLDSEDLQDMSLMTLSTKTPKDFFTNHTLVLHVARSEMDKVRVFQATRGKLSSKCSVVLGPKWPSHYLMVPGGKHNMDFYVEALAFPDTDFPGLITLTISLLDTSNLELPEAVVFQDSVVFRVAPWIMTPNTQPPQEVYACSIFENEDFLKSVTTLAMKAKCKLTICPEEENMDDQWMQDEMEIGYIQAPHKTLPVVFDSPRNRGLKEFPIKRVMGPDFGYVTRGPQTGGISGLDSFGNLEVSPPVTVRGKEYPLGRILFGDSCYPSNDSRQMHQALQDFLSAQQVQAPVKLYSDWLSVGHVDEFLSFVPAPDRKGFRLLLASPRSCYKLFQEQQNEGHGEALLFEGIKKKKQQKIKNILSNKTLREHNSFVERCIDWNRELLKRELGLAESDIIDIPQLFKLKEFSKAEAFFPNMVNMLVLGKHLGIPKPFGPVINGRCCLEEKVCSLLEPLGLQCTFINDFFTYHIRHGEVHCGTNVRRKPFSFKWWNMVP

SMILES	IC50 [nM]
Cn1c(-c2cc3cccc(OCC(O)c4cnco4)c3n2CC2CC2)nc2cc3c(nc21)CCN(C[C@H](N)CF)C3=O (single isomer, unassigned) [Example 61a]	101 to 500
Cn1c(-c2cc3cccc(OCC(O)c4cnco4)c3n2CC2CC2)nc2cc3c(nc21)CCN(C[C@H](N)CF)C3=O (single isomer, unassigned) [Example 61b]	101 to 500
CC(C(F)Oc1cccc2cc(-c3nc4cc5c(nc4n3C)CCN(C[C@H](N)CF)C5=O)n(CC3CC3)c12)n1ccnc1 (single isomer, unassigned) [Example 78a]	11 to 100
CC(C(F)Oc1cccc2cc(-c3nc4cc5c(nc4n3C)CCN(C[C@H](N)CF)C5=O)n(CC3CC3)c12)n1ccnc1 (single isomer, unassigned) [Example 78b]	≤ 10
CC(C(F)Oc1cccc2cc(-c3nc4cc5c(nc4n3C)CCN(C[C@H](N)CF)C5=O)n(CC3CC3)c12)n1ccnc1 (single isomer, unassigned) [Example 78c]	11 to 100
CC(C(F)Oc1cccc2cc(-c3nc4cc5c(nc4n3C)CCN(C[C@H](N)CF)C5=O)n(CC3CC3)c12)n1ccnc1 (single isomer, unassigned) [Example 78d]	11 to 100
Cn1c(-c2cc3cccc(OCC(F)n4ccnc4)c3n2CC2CC2)nc2cc3c(nc21)CCN(C[C@H](N)CF)C3=O (single isomer, unassigned) [Example 79a]	11 to 100
Cn1c(-c2cc3cccc(OCC(F)n4ccnc4)c3n2CC2CC2)nc2cc3c(nc21)CCN(C[C@H](N)CF)C3=O (single isomer, unassigned) [Example 79b]	11 to 100
COc1cccc2cc(-c3nc4cc5c(nc4n3C)CCN(C[C@H](N)CF)C5=O)n(CC(F)F)c12 [Example 3, (S)-7-(2-amino-3-fluoropropyl)-2-(1-(2,2-difluoroethyl)-7-methoxy-1H-indol-2-yl)-3-methyl-3,5,6,7-tetrahydro-8H-imidazo[4,5-b][1,6]naphthyridin-8-one]	101 to 500
COc1cccc2cc(-c3nc4cc5c(nc4n3C)CCN(C[C@H](N)CF)C5=O)n(CC3CC3(F)F)c12 (stereo partly drawn) [Example 4, 7-((S)-2-amino-3-fluoropropyl)-2-(1-((2,2-difluorocyclopropyl)methyl)-7-methoxy-1H-indol-2-yl)-3-methyl-3,5,6,7-tetrahydro-8H-imidazo[4,5-b][1,6]naphthyridin-8-one]	101 to 500
COc1cccc2cc(-c3nc4cc5c(nc4n3C)CCN(C[C@H](N)CF)C5=O)n(CCOC(F)(F)F)c12 [Example 5, (S)-7-(2-amino-3-fluoropropyl)-2-(7-methoxy-1-(2-(trifluoromethoxy)ethyl)-1H-indol-2-yl)-3-methyl-3,5,6,7-tetrahydro-8H-imidazo[4,5-b][1,6]naphthyridin-8-one]	101 to 500
COc1cccc2cc(-c3nc4cc5c(nc4n3C)CCN(C[C@H](N)CF)C5=O)n(CCOC(F)F)c12 [Example 6, (S)-7-(2-amino-3-fluoropropyl)-2-(1-(2-(difluoromethoxy)ethyl)-7-methoxy-1H-indol-2-yl)-3-methyl-3,5,6,7-tetrahydro-8H-imidazo[4,5-b][1,6]naphthyridin-8-one]	101 to 500
COc1nccc2cc(-c3nc4cc5c(nc4n3C)CCN(C[C@H](N)CF)C5=O)n(CC(F)(F)F)c12 [Example 21, (S)-7-(2-amino-3-fluoropropyl)-2-(7-methoxy-1-(2,2,2-trifluoroethyl)-1H-pyrrolo[2,3-c]pyridin-2-yl)-3-methyl-3,5,6,7-tetrahydro-8H-imidazo[4,5-b][1,6]naphthyridin-8-one]	> 1000
COc1cccc2cc(-c3nc4cc5c(nc4n3C)CCN(C[C@@H](C)N)C5=O)n(Cc3ncco3)c12 [Example 25, (R)-7-(2-aminopropyl)-2-(7-methoxy-1-(oxazol-2-ylmethyl)-1H-indol-2-yI)-3-methyl-3,5,6,7-tetrahydro-8H-imidazo[4,5-b][1,6]naphthyridin-8-one]	101 to 500
COc1cccc2cc(-c3nc4cc5c(nc4n3C)CCN(C[C@H]3COCCN3)C5=O)n(CCOC(F)F)c12 [Example 28, (S)-2-(1-(2-(difluoromethoxy)ethyl)-7-methoxy-1H-indol-2-yl)-3-methyl-7-(morpholin-3-ylmethyl)-3,5,6,7-tetrahydro-8H-imidazo[4,5-b][1,6]naphthyridin-8-one]	501 to 1000
CC(=O)N1CCC(c2cccc3cc(-c4nc5cc6c(nc5n4C)CCN(C[C@H](N)CF)C6=O)n(CC4CC4)c23)CC1 [Example 29, (S)-2-(7-(1-acetylpiperidin-4-yl)-1-(cyclopropylmethyl)-1H-indol-2-yl)-7-(2-amino-3-fluoropropyl)-3-methyl-3,5,6,7-tetrahydro-8H-imidazo[4,5-b][1,6]naphthyridin-8-one]	101 to 500
CO[C@H](C)C(=O)N1CCC(c2cccc3cc(-c4nc5cc6c(nc5n4C)CCN(C[C@H](N)CF)C6=O)n(CC4CC4)c23)CC1 [Example 31, 7-((S)-2-amino-3-fluoropropyl)-2-(1-(cyclopropylmethyl)-7-(1-((R)-2-methoxypropanoyl)piperidin-4-yl)-1H-indol-2-yl)-3-methyl-3,5,6,7-tetrahydro-8H-imidazo[4,5-b][1,6]naphthyridin-8-one]	11 to 100
C[C@H](O)C(=O)N1CCC(c2cccc3cc(-c4nc5cc6c(nc5n4C)CCN(C[C@H](N)CF)C6=O)n(CC4CC4)c23)CC1 [Example 32, 7-((S)-2-amino-3-fluoropropyl)-2-(1-(cyclopropylmethyl)-7-(1-((S)-2-hydroxypropanoyl)piperidin-4-yl)-1H-indol-2-yl)-3-methyl-3,5,6,7-tetrahydro-8H-imidazo[4,5-b][1,6]naphthyridin-8-one]	101 to 500
COC(=O)N1CC[C@@H](Oc2cccc3cc(-c4nc5cc6c(nc5n4C)CCN(C[C@H](N)CF)C6=O)n(CC4CC4)c23)C1 [Example 40, methyl (R)-3-((2-(7-((S)-2-amino-3-fluoropropyl)-3-methyl-8-oxo-5,6,7,8-tetrahydro-3H-imidazo[4,5-b][1,6]naphthyridin-2-yl)-1-(cyclopropylmethyl)-1H-indol-7-yl)oxy)pyrrolidine-1-carboxylate]	11 to 100

Second part, the compound after the results:

IC50 [nM]	SMILES
≤ 10	CC(COc1cccc2cc(-c3nc4cc5c(nc4n3C)CCN(C[C@H](N)CF)C5=O)n(CC3CC3)c12)c1cccnc1 (single isomer, unassigned) [Example 45a]
≤ 10	CC(COc1cccc2cc(-c3nc4cc5c(nc4n3C)CCN(C[C@H](N)CF)C5=O)n(CC3CC3)c12)c1cccnc1 (single isomer, unassigned) [Example 45b]
≤ 10	Cn1c(-c2cc3cccc(OC(F)Cn4cnc(F)c4)c3n2CC2CC2)nc2cc3c(nc21)CCN(C[C@H](N)CF)C3=O (single isomer, unassigned) [Example 73a]
≤ 10	Cn1c(-c2cc3cccc(OC(F)Cn4cnc(F)c4)c3n2CC2CC2)nc2cc3c(nc21)CCN(C[C@H](N)CF)C3=O (single isomer, unassigned) [Example 73b]
11 to 100	Cn1c(-c2cc3cccc(OC(C)(F)Cn4ccnc4)c3n2CC2CC2)nc2cc3c(nc21)CCN(C[C@H](N)CF)C3=O (single isomer, unassigned) [Example 76a]
11 to 100	Cn1c(-c2cc3cccc(OC(C)(F)Cn4ccnc4)c3n2CC2CC2)nc2cc3c(nc21)CCN(C[C@H](N)CF)C3=O (single isomer, unassigned) [Example 76b]
11 to 100	COCCn1c(-c2nc3cc4c(nc3n2C)CCN(C[C@H](N)CF)C4=O)cc2cccc(OC(F)Cn3ccnc3)c21 (single isomer, unassigned) [Example 77a]
11 to 100	COCCn1c(-c2nc3cc4c(nc3n2C)CCN(C[C@H](N)CF)C4=O)cc2cccc(OC(F)Cn3ccnc3)c21 (single isomer, unassigned) [Example 77b]
≤ 10	Cn1c(-c2cc3cccc(OCCc4cn[nH]c4)c3n2CC2CC2)nc2cc3c(nc21)CCN(C[C@H](N)CF)C3=O [Example 50, (S)-2-(7-(2-(1H-pyrazol-4-yl)ethoxy)-1-(cyclopropylmethyl)-1H-indol-2-yl)-7-(2-amino-3-fluoropropyl)-3-methyl-3,5,6,7-tetrahydro-8H-imidazo[4,5-b][1,6]naphthyridin-8-one]
